According to US20110144014A1, “CYTOKINE RECEPTOR MODULATORS AND USES THEREOF” (CENTRE HOSPITALIER UNIVERSITAIRE SAINTE-JUSTINE, priority 2005, published 2011):
Where a SMILES comes first, the peptide text is derived from it. [ ]: non-standard residue; d: D form.

Assays:
[1] = target: T1, IL-1R/IL-1RacP (Sus scrofa, UniProt A0A5G2QSI4); experiment: Vasomotricity of piglet pial vessels (IL-1β induced vasodilation); settings: vasodilation induced by IL-1
T1 construct: Slices of brain exposing the pial vessels; from tissue; host or cells: piglet brain slices, pial vessels
T1 sequence (A0A5G2QSI4 21-572): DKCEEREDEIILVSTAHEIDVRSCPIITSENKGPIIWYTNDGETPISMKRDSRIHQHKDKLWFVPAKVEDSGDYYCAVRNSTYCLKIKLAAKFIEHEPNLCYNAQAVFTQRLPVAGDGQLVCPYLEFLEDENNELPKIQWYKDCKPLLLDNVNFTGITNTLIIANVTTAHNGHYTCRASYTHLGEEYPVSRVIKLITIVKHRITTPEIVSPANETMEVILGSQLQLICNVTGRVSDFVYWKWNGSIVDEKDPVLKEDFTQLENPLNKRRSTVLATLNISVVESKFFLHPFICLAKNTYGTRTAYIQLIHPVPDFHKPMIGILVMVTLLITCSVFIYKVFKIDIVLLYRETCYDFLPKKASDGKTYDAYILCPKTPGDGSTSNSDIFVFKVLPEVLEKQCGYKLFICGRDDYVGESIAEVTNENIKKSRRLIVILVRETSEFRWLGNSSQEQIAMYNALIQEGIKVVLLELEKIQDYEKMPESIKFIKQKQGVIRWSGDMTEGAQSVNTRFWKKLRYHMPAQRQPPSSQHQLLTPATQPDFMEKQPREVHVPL
Method: In another experiment, vasomotricity variation of piglets pial vessels was studied to further evaluate the particular effect of cytokine receptor subfragments on the vasodilatator effect of IL-1β. Brains were dissected from Yorkshire piglets. Slices of brain exposing the pial vessels were pinned to a wax base of a 20 ml bath containing Krebs buffer (pH 7.4) equilibrated with 95% O2-5% CO2 and maintained at 37° C. Microvessels were visualized and recorded using a video camera mounted on a dissecting microscope. Vascular diameter was measured using a digital image analyzer and the images were recorded before and after topical application of constricting agent U46619 at 10^−7M. After stabilization of the vasomotricity, IL-1 ? was added until stabilization of vasodilatation. Peptides were then injected at different concentrations from 10^−10 to 10^−5M. Reversal of vasodilatation (i.e., vasoconstriction) was visualized and measured as described above. IL-1 ? induced vasodilatation in the microvasculature of the piglet brain was observed. Examples of the inhibitory activity of cytokine subfragment peptides are given below.

[2] = tested on: IL-1R/IL-1RacP; experiment: IL-1-induced PGE2 synthesis in endothelial cells; format: cell-based, porcine
Method: Efficiencies and inhibitory activities of the mutated peptides were determined by measuring the inhibition of IL-1-induced PGE2 synthesis. […] All peptides were tested at concentration 10^−6M.
The arginine of API-101.10 (SEQ ID NO: 10) was replaced by citrulline—to change from a guanidine to a urea group near the N-terminal. Other mutations (e.g. E to Q in API-101.102 and API-101.103) and a truncated peptide at the C-terminal (API-101.108) were also performed to improve the potency and the efficacy of the peptides. Measurement of PGE2 was performed with piglet brain microvessel endothelial cells and WI-38 human fibroblasts. Some of the mutations were advantageous and gave major increases in potency.
IL-1-induced PGE2 synthesis assay on endothelial cells was used as a screening assay for the peptidomimetics.

[3] = tested on: IL-1R/IL-1RacP; experiment: IL-1β-induced cGMP production in brain tissues ex vivo
Method: For these newly derived peptides, ex vivo experiments were then conducted. Brain tissues were incubated with the peptides and IL-1β and cGMP was measured with a commercial kit (Amersham Bioscience, cGMP assay biotrack™ system). API-101.10 already inhibited 85% of IL-1β-induced cGMP production (10^−6M) and API-101.103 and 101.106 inhibited more than 90% of cGMP production. Thus, removal of the negative charge of the glutamate and removal of the threonine can improve the potency of the antagonist.

[4] = tested on: HEK293 cells; experiment: Binding of I125-API-101.10 in HEK293 cells not containing IL-1R
From the text: Thymocytes freshly isolated from rat thymus were resuspended at a concentration of 10^7 cell/ml in PBS (phosphate buffered saline) buffer pH 8.0 (reaction buffer) and washed three times with ice-cold reaction buffer. The reaction mixture for each sample contained: 10^6 cells and 10^7 cpm of 125API-101.10. One sample also contained […] of cold API-101.10 peptide. In the negative control HEK-293 cells containing a negligible amount of IL-1R were used. Each sample volume was then raised to 250 μl with reaction buffer. Samples were incubated at room temperature and/or 37° for 45 minutes to allow peptide binding. The non-permeable cross-linker BS3 (Bis(sulfosuccinimidyl)suberate) was then added to a final concentration of 2.5 mM and samples were incubated at 4° C. for 30 minutes to minimize active internalization of BS3 (11.4 Å) (Pierce) (Partis, J. Prot. Chem. 293:263-277, 1983; Cox et al., J. Immunol. 145:1719-1726, 1990; and Knoller et al., J. Biol. Chem. 266:2795-2804, 1991). The reaction was quenched with 20 mM TRIS pH 7.5 for 15 minutes at room temperature. Cells were centrifuged at 4000 rpm for 10 minutes, lysed for 30 minutes on ice with 150 μl of RIPA buffer (50 mM Tris HCl pH7.4; 150 mM NaCl; 1 mM EDTA; 2 mM Na3VO4; 1 mM NaF; 1% NP-40; 0.25% Nadeoxycholate). […] Radioactivity was determined is every cell lysate with a Packard CobraII autogamma counter.

Compound: CC(C)C[C@@H](NC(=O)[C@@H](CCC(=O)O)NC(=O)[C@H](NC(=O)[C@H](NC(=O)[C@@H](Cc1ccc(O)cc1)NC(=O)[C@H](N)CCCNC(=N)N)[C@H](C)O)C(C)C)C(=O)N[C@H](C)C(N)=O [API-101.10, RYTVELA] (H-[dR][dY][dT][dV][dE][dL][dA]-NH2; N-terminus and C-terminus assumed)
- potency relative to API-101 [1]: 100 fold
- IC50 [2]: 1.2 nM
- inhibition of IL-1β-induced cGMP production ([3]; brain tissues, 10^−6M): 85%
- activity compared with Kineret ([3]; data not shown): superior
- binding in cells not containing IL-1R [4]: does not occur
